Laboratory results from the supplement of paper PMC10307832.

Columns and labels:
Test in all cases: relative viability (nuclei count vs DMSO), 5 days (fraction); higher = more cells survive
UMC-11 = tested on: UMC-11
Summary of the method: (§1)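 Five library-drug doses in √10 steps were combined with a fixed anchor-drug dose, or a single drug was given alone, by pin tool to lung cancer cell lines in 1536-well plates the day after seeding. Nuclei were stained and counted after 5 days. Relative viability is the nuclei count in treated wells over that in vehicle wells, taken as the median of duplicate plates.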

NCI-H358 = tested on: NCI-H358
Summary of the method: as §1

SK-LU-1 = tested on: SK-LU-1
Summary of the method: as §1

NCI-H1734 = tested on: NCI-H1734
Summary of the method: as §1

NCI-H2228 = tested on: NCI-H2228
Summary of the method: as §1

HCC-78 = tested on: HCC-78
Summary of the method: as §1

NCI-H1975 = tested on: NCI-H1975
Summary of the method: as §1

NCI-H727 = tested on: NCI-H727
Summary of the method: as §1

NCI-H1355 = tested on: NCI-H1355
Summary of the method: as §1

NCI-H2085 = tested on: NCI-H2085
Summary of the method: as §1

NCI-H2126 = tested on: NCI-H2126
Summary of the method: as §1

PC-14 = tested on: PC-14
Summary of the method: as §1

201T = tested on: 201T
Summary of the method: as §1

NCI-H647 = tested on: NCI-H647
Summary of the method: as §1

NCI-H1395 = tested on: NCI-H1395
Summary of the method: as §1

LU99A = tested on: LU99A
Summary of the method: as §1

HCC-44 = tested on: HCC-44
Summary of the method: as §1

LOU-NH91 = tested on: LOU-NH91
Summary of the method: as §1

HCC-366 = tested on: HCC-366
Summary of the method: as §1

NCI-H2087 = tested on: NCI-H2087
Summary of the method: as §1

SK-MES-1 = tested on: SK-MES-1
Summary of the method: as §1

BEN = tested on: BEN
Summary of the method: as §1

NCI-H322M = tested on: NCI-H322M
Summary of the method: as §1

Compound: C=C1C(=O)O[C@@H](CCCCCCCC)[C@@H]1C(=O)O [C-75] + CC(=O)Nc1cccc(-n2c(=O)n(C3CC3)c(=O)c3c(Nc4ccc(I)cc4F)n(C)c(=O)c(C)c32)c1 [Trametinib] (partner 0.02 µM)
- relative viability (UMC-11; first compound 0.08 µM): 0.723
- relative viability (UMC-11; first compound 0.253 µM): 0.841
- relative viability (UMC-11; first compound 0.8 µM): 0.659
- relative viability (UMC-11; first compound 2.53 µM): 0.581
- relative viability (UMC-11; first compound 8 µM): 0.526
- relative viability (NCI-H358; first compound 0.08 µM): 0.158
- relative viability (NCI-H358; first compound 0.253 µM): 0.13
- relative viability (NCI-H358; first compound 0.8 µM): 0.151
- relative viability (NCI-H358; first compound 8 µM): 0.121
- relative viability (SK-LU-1; first compound 0.08 µM): 0.494
- relative viability (SK-LU-1; first compound 0.253 µM): 0.598
- relative viability (SK-LU-1; first compound 0.8 µM): 0.49
- relative viability (SK-LU-1; first compound 2.53 µM): 0.458
- relative viability (SK-LU-1; first compound 8 µM): 0.468
- relative viability (NCI-H1734; first compound 0.08 µM): 0.664
- relative viability (NCI-H1734; first compound 0.253 µM): 0.78
- relative viability (NCI-H1734; first compound 0.8 µM): 0.664
- relative viability (NCI-H1734; first compound 2.53 µM): 0.524
- relative viability (NCI-H1734; first compound 8 µM): 0.691
- relative viability (NCI-H2228; first compound 0.08 µM): 0.666
- relative viability (NCI-H2228; first compound 0.253 µM): 0.673
- relative viability (NCI-H2228; first compound 0.8 µM): 0.444
- relative viability (NCI-H2228; first compound 2.53 µM): 0.372
- relative viability (NCI-H2228; first compound 8 µM): 0.519
- relative viability (HCC-78; first compound 0.08 µM): 0.776
- relative viability (HCC-78; first compound 0.253 µM): 0.935
- relative viability (HCC-78; first compound 0.8 µM): 0.782
- relative viability (HCC-78; first compound 8 µM): 0.62
- relative viability (NCI-H1975; first compound 0.08 µM): 0.452
- relative viability (NCI-H1975; first compound 0.253 µM): 0.309
- relative viability (NCI-H1975; first compound 0.8 µM): 0.305
- relative viability (NCI-H1975; first compound 2.53 µM): 0.319
- relative viability (NCI-H1975; first compound 8 µM): 0.41
- relative viability (NCI-H727; first compound 0.08 µM): 0.377
- relative viability (NCI-H727; first compound 0.253 µM): 0.378
- relative viability (NCI-H727; first compound 0.8 µM): 0.448
- relative viability (NCI-H727; first compound 2.53 µM): 0.393
- relative viability (NCI-H727; first compound 8 µM): 0.352
- relative viability (NCI-H1355; first compound 0.08 µM): 0.436
- relative viability (NCI-H1355; first compound 0.253 µM): 0.406
- relative viability (NCI-H1355; first compound 0.8 µM): 0.384
- relative viability (NCI-H1355; first compound 2.53 µM): 0.343
- relative viability (NCI-H1355; first compound 8 µM): 0.448
- relative viability (NCI-H2085; first compound 0.08 µM): 0.519
- relative viability (NCI-H2085; first compound 0.253 µM): 0.666
- relative viability (NCI-H2085; first compound 0.8 µM): 0.466
- relative viability (NCI-H2085; first compound 2.53 µM): 0.559
- relative viability (NCI-H2085; first compound 8 µM): 0.521
- relative viability (NCI-H2126; first compound 0.08 µM): 0.587
- relative viability (NCI-H2126; first compound 0.253 µM): 0.587
- relative viability (NCI-H2126; first compound 0.8 µM): 0.581
- relative viability (NCI-H2126; first compound 2.53 µM): 0.553
- relative viability (NCI-H2126; first compound 8 µM): 0.502
- relative viability (PC-14; first compound 0.08 µM): 0.902
- relative viability (PC-14; first compound 0.253 µM): 0.811
- relative viability (PC-14; first compound 0.8 µM): 0.724
- relative viability (PC-14; first compound 2.53 µM): 0.78
- relative viability (PC-14; first compound 8 µM): 0.731
- relative viability (201T; first compound 0.08 µM): 0.716
- relative viability (201T; first compound 0.253 µM): 0.824
- relative viability (201T; first compound 0.8 µM): 0.731
- relative viability (201T; first compound 2.53 µM): 0.692
- relative viability (201T; first compound 8 µM): 0.763
- relative viability (NCI-H647; first compound 0.08 µM): 0.463
- relative viability (NCI-H647; first compound 0.253 µM): 0.533
- relative viability (NCI-H647; first compound 0.8 µM): 0.361
- relative viability (NCI-H647; first compound 2.53 µM): 0.429
- relative viability (NCI-H647; first compound 8 µM): 0.28
- relative viability (NCI-H1395; first compound 0.08 µM): 0.973
- relative viability (NCI-H1395; first compound 0.253 µM): 1.05
- relative viability (NCI-H1395; first compound 2.53 µM): 1.03
- relative viability (NCI-H1395; first compound 8 µM): 0.933
- relative viability (LU99A; first compound 0.08 µM): 0.526
- relative viability (LU99A; first compound 0.253 µM): 0.528
- relative viability (LU99A; first compound 0.8 µM): 0.475
- relative viability (LU99A; first compound 2.53 µM): 0.562
- relative viability (LU99A; first compound 8 µM): 0.527
- relative viability (HCC-44; first compound 0.08 µM): 1.03
- relative viability (HCC-44; first compound 0.253 µM): 1.14
- relative viability (HCC-44; first compound 0.8 µM): 0.964
- relative viability (HCC-44; first compound 2.53 µM): 0.991
- relative viability (HCC-44; first compound 8 µM): 1.09
- relative viability (LOU-NH91; first compound 0.08 µM): 0.802
- relative viability (LOU-NH91; first compound 0.253 µM): 0.712
- relative viability (LOU-NH91; first compound 0.8 µM): 0.762
- relative viability (LOU-NH91; first compound 8 µM): 0.782
- relative viability (HCC-366; first compound 0.08 µM): 0.356
- relative viability (HCC-366; first compound 0.253 µM): 0.426
- relative viability (HCC-366; first compound 0.8 µM): 0.327
- relative viability (HCC-366; first compound 2.53 µM): 0.285
- relative viability (HCC-366; first compound 8 µM): 0.326
- relative viability (NCI-H2087; first compound 0.08 µM): 0.247
- relative viability (NCI-H2087; first compound 0.253 µM): 0.24
- relative viability (NCI-H2087; first compound 0.8 µM): 0.179
- relative viability (NCI-H2087; first compound 2.53 µM): 0.16
- relative viability (NCI-H2087; first compound 8 µM): 0.212
- relative viability (SK-MES-1; first compound 0.08 µM): 0.538
- relative viability (SK-MES-1; first compound 0.253 µM): 0.542
- relative viability (SK-MES-1; first compound 0.8 µM): 0.48
- relative viability (SK-MES-1; first compound 2.53 µM): 0.478
- relative viability (SK-MES-1; first compound 8 µM): 0.438
- relative viability (BEN; first compound 0.08 µM): 0.993
- relative viability (BEN; first compound 0.253 µM): 1.2
- relative viability (BEN; first compound 0.8 µM): 0.995
- relative viability (BEN; first compound 2.53 µM): 1.14
- relative viability (BEN; first compound 8 µM): 0.989
- relative viability (NCI-H322M; first compound 0.08 µM): 0.513
- relative viability (NCI-H322M; first compound 0.253 µM): 0.673
- relative viability (NCI-H322M; first compound 0.8 µM): 0.547
- relative viability (NCI-H322M; first compound 8 µM): 0.508
